Measured values: patent US20210228560A1 (Centogene IP GmbH, priority 2011, published 2021)
Numbering of substitutions follows the chain as printed. Read-outs that look alike come from different tables or passages of the source.

Tests used:
Type in all cases: cell-based
wild type GLA = biological target: T1, wild type GLA (Homo sapiens, UniProt P06280)
T1 sequence (P06280 32-429): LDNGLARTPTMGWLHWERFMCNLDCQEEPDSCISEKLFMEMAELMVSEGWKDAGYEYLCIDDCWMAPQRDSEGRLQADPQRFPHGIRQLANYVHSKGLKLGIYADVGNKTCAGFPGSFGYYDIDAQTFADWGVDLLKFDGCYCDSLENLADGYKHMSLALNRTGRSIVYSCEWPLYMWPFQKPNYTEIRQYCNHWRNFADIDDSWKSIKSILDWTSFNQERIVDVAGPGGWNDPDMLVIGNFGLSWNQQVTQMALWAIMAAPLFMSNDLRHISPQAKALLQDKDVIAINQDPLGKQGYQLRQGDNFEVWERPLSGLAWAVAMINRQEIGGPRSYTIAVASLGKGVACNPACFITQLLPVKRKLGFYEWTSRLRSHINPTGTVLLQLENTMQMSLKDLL
Method: A bacterial clone containing the full length cDNA of α-galactosidase A (IRAUp969H0320D, aligned to accession no. NM_000169.2 (GeneBank)) was received form ImaGenes GmbH, Berlin, Germany. Amplification was performed with the primers 5′-[…] […]-3′ (SEQ ID NO:1) and 5′-[…]-3′ (SEQ ID NO:2) introducing unique restriction sites for BamHI and BstBI. The PCR was taken out using cloned Pfu DNA polymerase (Stratagene). The cDNA was subcloned into pGEM-T Easy vector (Promega). Prior to ligation, the cDNA insert was incubated with Taq polymerase (Qiagen) to add a poly (A) overhang at the 3′-end for TA-cloning. For expression, the α-Gal A cDNA was ligated into target vector pcDNA3.1/V5-His6 (Invitrogen).

GLA[A156V] = biological target: T2, GLA[A156V] (Homo sapiens, UniProt P06280, A156V); settings: untreated = 1.0, FIG. 5A
T2 sequence (P06280 32-429 A156V): T1 sequence (P06280 32-429) with A125V

GLA[R301G] = biological target: T3, GLA[R301G] (Homo sapiens, UniProt P06280, R301G); settings: 20 μM DGJ and 40 μM Ambroxol; untreated = 1.0; FIG. 5B
T3 sequence (P06280 32-429 R301G): T1 sequence (P06280 32-429) with R270G

[1] = system: α-Gal A protein (GLA mutants); test: Western blot of GLA protein levels in cells transfected with GLA mutants; settings: DGJ and Ambroxol compared to DGJ alone; FIG. 4
Method: Western blot analysis for the detection of α-Gal A protein was performed using a commercially available rabbit anti-α-Gal A polyclonal antibody ([H-104] Santa Cruz) Furthermore, a mouse GAPDH monoclonal antibody ([6C5] abcam) was used as an internal loading control.
The cells were then rinsed off from the wells, transferred to micro centrifuge tubes and spun at 14000×g for 10 minutes at 4° C. to pellet the cell debris. The supernatant was used for the analysis. After the determination of protein concentration, […] protein were mixed with a suitable volume of 5× Laemmli loading buffer, boiled for 5 minutes on a thermo shaker (Eppendorf), centrifuged at 14000×g for 10 minutes at 4° C. and loaded on a Criterion precast 4-15% Tris-HCl gel (Bio-Rad). Proteins were transferred electorophoretically to a Nitrocellulose (Amersham Hybond ECL) membrane (GE Healthcare). The membrane was blocked with 5% (w/v) non-fat dried skimmed milk in TBS-Tween 20 [10 mM Tris/HCl (pH 7.5) with 150 mM NaCl and 0.1% Tween 20] at room temperature for 1 hour, and then treated with a primary antibody against GAPDH diluted 1:10000 in a milk/blot solution [3% (w/v) non-fat dried skimmed milk in TBS-Tween 20] at 4° C. overnight. […] Following extensive washing with TBS-Tween 20, protein bands were visualized with an Odyssey Infrared Imager (Li-Cor) and quantified using the Odyssey software.

Nc1c(Br)cc(Br)cc1CN[C@H]1CC[C@H](O)CC1 [Ambroxol, 2-amino-3,5-dibromo-N-[trans-4-hydroxycyclohexyl]benzylamine]
enzyme activity of the GLA of the wild type (wild type GLA; 40 μM Ambroxol alone, FIG. 1): increase in enzyme activity | inhibition of wild type GLA (wild type GLA; Ambroxol dose-response, FIG. 2): not inhibiting | Ambroxol titer at or beyond which local maximum or saturation of wild type GLA activity (wild type GLA; FIG. 2): > 60 µM | EC50 (wild type GLA; read-out: EC50 of increase of wild type GLA activity): 21.2 µM | increase of GLA[A156V] activity (GLA[A156V]; 8 μM DGJ and 40 μM Ambroxol): 3.8 fold | increase of GLA[A156V] activity (GLA[A156V]; 20 μM DGJ and 40 μM Ambroxol): up to 8 fold | increase of GLA[R301G] activity (GLA[R301G]): 4.1 fold | amount of Gal A protein in the cell (Western blot) [1]: higher amount of Gal A
